Results as given in ChEMBL document CHEMBL1136191, “Cyclin-dependent kinase 4 inhibitors as a treatment for cancer. Part 1: identification and optimisation of substituted 4,6-bis anilino pyrimidines” (Bioorg Med Chem Lett, 2003).
pIC50: −log10 of the molar value.

Assays:
[1] = target: Cyclin-dependent kinase 4 (Homo sapiens, UniProt P11802); experiment: In vitro inhibition of Cyclin-dependent kinase 4 was determined.
[2] = target: Cyclin-dependent kinase 2 (Homo sapiens, UniProt P24941); experiment: In vitro inhibition of Cyclin-dependent kinase 2 was determined.

Cyclin-dependent kinase 4, sequence (P11802 whole entry): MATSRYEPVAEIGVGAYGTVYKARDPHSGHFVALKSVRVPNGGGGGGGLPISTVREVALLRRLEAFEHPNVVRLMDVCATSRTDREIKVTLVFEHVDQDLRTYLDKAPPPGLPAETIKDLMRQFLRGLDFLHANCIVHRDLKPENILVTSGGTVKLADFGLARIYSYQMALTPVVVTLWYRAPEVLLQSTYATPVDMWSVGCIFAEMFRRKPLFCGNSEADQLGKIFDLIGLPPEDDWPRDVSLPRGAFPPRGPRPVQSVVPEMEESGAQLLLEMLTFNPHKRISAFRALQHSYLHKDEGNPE

Work on `CN(C)CC(O)COc1ccc(Nc2cc(Nc3ccccc3Br)ncn2)cc1` (configuration not stated) yielded a pIC50 [1] of 5.40 and a pIC50 [2] of 4.55.

`C#CCN(c1cc(Nc2ccc(OCC(O)CN(C)C)cc2)ncn1)c1cc(Cl)ccc1Cl` (configuration not stated) showed a pIC50 [1] of 6.10 and a pIC50 [2] of 4.72.

Compound `CN(C)CC(O)COc1ccc(Nc2cc(N(CC#N)c3cc(Cl)ccc3Cl)ncn2)cc1` (configuration not stated) has a pIC50 [1] of 7.30 and a pIC50 [2] of 6.00.

With `CN(C)CC(O)COc1ccc(Nc2cc(Nc3cc(C(F)(F)F)ccc3F)ncn2)cc1` (configuration not stated) the pIC50 [1] was 5.22.

`CN(C)CC(O)COc1ccc(Nc2cc(Nc3c(F)cccc3F)ncn2)cc1` (configuration not stated) was tested, and the pIC50 [1] was 5.05.

`COc1ccccc1Nc1cc(Nc2ccc(OCC(O)CN(C)C)cc2)ncn1` (configuration not stated) showed a pIC50 [1] of 4.64 and a pIC50 [2] of 4.07.

For `CN(C)CC(O)COc1ccc(Nc2cc(N(Cc3ccccc3)c3cc(Cl)ccc3Cl)ncn2)cc1` (configuration not stated), the pIC50 [1] was 5.30 and the pIC50 [2] was less than 4.00.

Work on `CN(C)CC(O)COc1ccc(Nc2cc(Nc3ccccc3[N+](=O)[O-])ncn2)cc1` (configuration not stated) yielded a pIC50 [1] of 5.70 and a pIC50 [2] of 4.60.

`CN(C)CC(O)COc1ccc(Nc2cc(Nc3ccc(F)cc3F)ncn2)cc1` (configuration not stated) gave a pIC50 [1] of 4.82 and a pIC50 [2] of 4.03.

Compound `CN(C)CC(O)COc1ccc(Nc2cc(N(CCC#N)c3cc(Cl)ccc3Cl)ncn2)cc1` (configuration not stated) has a pIC50 [1] of 6.30 and a pIC50 [2] of 5.30.

`CN(C)CC(O)COc1ccc(Nc2cc(Nc3ccccc3)ncn2)cc1` (configuration not stated) showed a pIC50 [1] of 4.48 and a pIC50 [2] of less than 4.00.

`CN(C)CC(O)COc1ccc(Nc2cc(Nc3ccccc3F)ncn2)cc1` (configuration not stated) was tested, and the pIC50 [1] was 4.57 and the pIC50 [2] was less than 4.00.

`CN(C)CC(O)COc1ccc(Nc2cc(Nc3cc(Cl)ccc3Cl)ncn2)cc1` (configuration not stated) gave a pIC50 [1] of 6.00 and a pIC50 [2] of 4.66.

`Cc1ccccc1Nc1cc(Nc2ccc(OCC(O)CN(C)C)cc2)ncn1` (configuration not stated) showed a pIC50 [1] of 5.10 and a pIC50 [2] of 4.41.

`Cc1ccc(N(CC#N)c2cc(Nc3ccc(OCC(O)CN(C)C)cc3)ncn2)c(Br)c1` (configuration not stated) showed a pIC50 [1] of 7.00 and a pIC50 [2] of 5.52.

`CN(C)CC(O)COc1ccc(Nc2cc(Nc3ccccc3Cl)ncn2)cc1` (configuration not stated) was tested, and the pIC50 [1] was 5.10 and the pIC50 [2] was 4.02.

`CC(C)c1ccccc1Nc1cc(Nc2ccc(OCC(O)CN(C)C)cc2)ncn1` (configuration not stated) showed a pIC50 [1] of 4.74 and a pIC50 [2] of 4.62.
